For one data set, the target named is HDAC1 (Homo sapiens, UniProt Q13547). The data set can be described thus: In vitro biochemical HDAC enzyme assay. To be noted: 24 hours pre-incubation; mean, n = 4. Here is the method: (§1) In vitro biochemical assays were performed as described previously. Specifically, drugs were dissolved and diluted in assay buffer (50 mM HEPES, pH 7.4, 100 mM KCl, 0.001% Tween-20, 0.05% BSA, and 20 μM Tris (2-carboxyethyl)phosphine) to 6-fold the final concentration. HDAC enzymes (BPS Biosciences) were diluted to 1.5-fold of the final concentration in assay buffer and pre-incubated with ACY-957 for 24 hours before the addition of the substrate. The amount of substrate (acetyl-lysine tripeptide substrate for HDAC1, HDAC2, HDAC3, and HDAC6 or trifluoroacetyl-lysine tripeptide for HDAC4, HDAC5, HDAC7, HDAC8, and HDAC9) used for each enzyme was equal to the Michaelis constant (Km), as determined by a titration curve. Substrate was diluted in assay buffer to 6-fold the final concentration with 0.3 μM sequencing grade trypsin (Sigma-Aldrich). The substrate/trypsin mix was added to the enzyme/compound mix and the plate was shaken for 5 seconds and then placed into a SpectraMax M5 microtiter plate reader (Molecular Devices). The enzymatic reaction was monitored over 30 minutes for release of […] after deacetylation of the lysine side chain in the peptide substrate, and the linear rate of the reaction was calculated.
Chain of HDAC1 (Q13547 whole entry): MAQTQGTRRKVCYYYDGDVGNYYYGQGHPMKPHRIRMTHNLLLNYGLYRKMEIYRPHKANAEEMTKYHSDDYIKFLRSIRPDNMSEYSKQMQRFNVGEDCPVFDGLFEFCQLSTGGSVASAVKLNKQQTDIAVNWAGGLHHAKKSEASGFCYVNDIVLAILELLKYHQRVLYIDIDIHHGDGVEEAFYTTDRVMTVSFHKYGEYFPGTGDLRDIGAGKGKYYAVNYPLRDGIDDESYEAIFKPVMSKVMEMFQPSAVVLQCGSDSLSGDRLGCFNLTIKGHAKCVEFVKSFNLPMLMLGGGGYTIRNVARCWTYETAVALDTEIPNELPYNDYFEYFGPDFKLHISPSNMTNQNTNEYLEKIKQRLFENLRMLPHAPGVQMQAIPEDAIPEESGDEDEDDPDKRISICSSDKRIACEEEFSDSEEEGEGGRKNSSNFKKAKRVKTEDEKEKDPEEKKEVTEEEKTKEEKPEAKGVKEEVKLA
(§2) ACY-957 was tested against each individual HDAC in an in vitro biochemical assay as previously described. Aminobenzamides have slow association rate constants, therefore a prolonged pre-incubation time of 24 hours is required to reach equilibrium.

A further data set addresses HDAC3 (Homo sapiens, UniProt O15379). The data set can be described thus: In vitro biochemical HDAC enzyme assay. The procedure: as §1, §2
The test system of the next data set is T1, HDAC4.
T1 construct: purchased BPS Biosciences
The data set can be described thus: In vitro biochemical HDAC enzyme assay. To be noted: at concentrations as high as 20 μM. Here is the method: as §1, §2

A further data set relates to T2, HDAC5.
T2 construct: purchased BPS Biosciences
Kind of data set: In vitro biochemical HDAC enzyme assay. To be noted: at concentrations as high as 20 μM. Here is the method:
as §1, §2

In the next data set the test system is T3, HDAC6.
T3 construct: purchased BPS Biosciences
Kind of data set: In vitro biochemical HDAC enzyme assay. To be noted: at concentrations as high as 20 μM. Here is the method:
as §1, §2

Another data set relates to T4, HDAC7.
T4 construct: purchased BPS Biosciences
The data set can be described thus: In vitro biochemical HDAC enzyme assay. To be noted: at concentrations as high as 20 μM. The procedure: as §1, §2

Another data set has as its system T5, HDAC8.
T5 construct: purchased BPS Biosciences
Kind of data set: In vitro biochemical HDAC enzyme assay. To be noted: at concentrations as high as 20 μM. The procedure: as §1, §2

The subject of the next data set is T6, HDAC9.
T6 construct: purchased BPS Biosciences
Kind of data set: In vitro biochemical HDAC enzyme assay. To be noted: at concentrations as high as 20 μM. Here is the method:
as §1, §2

A further data set relates to GATA2 mRNA. Kind of data set: GATA2 mRNA in cells from SCD donors. In kind it is cell-based, human. To be noted: 1 μM, 3 days of culture.
Data set [1] has as its system GATA2 binding at the HBD promoter. The data set can be described thus: GATA2 ChIP-QPCR at the HBD promoter. The data set is classed as cell-based, human. To be noted: 1 μM. The procedure:
Cells were fixed in 1% formaldehyde for 15 minutes at room temperature. Crosslinking reaction was extinguished by adding glycine to 125 mM. Cells were washed three times in PBS, 0.5% lgepal CA-630, 1 mM phenylmethanesulfonyl fluoride (PMSF). Cell pellets were snap frozen on dry ice and stored at -80°C.
For ChIP-QPCR experiments, chromatin (11 μg) from vehicle (n = 1) or ACY-957 (n = 1) treated cells was fragmented by sonication, then immunoprecipitated (n = 3, each) using antibodies against histone H3 lysine 9 acetylation (3 μg, ab10812, Abcam), histone H2B lysine 5 acetylation (6 μL, ab40886, Abcam), histone H3 lysine 27 acetylation (3 μg, ab4729, Abcam), or GATA2 (6 μg, SC-9008, Santa Cruz). Specific genomic regions within immunoprecipitated and input DNA was detected using SYBR green QPCR with the following primer pairs:
GATA2 could affect HBG indirectly, through altering the expression of other factors which, in turn, act directly at the β-like globin gene cluster. […] To investigate this possibility, we looked at the β-like globin gene cluster in the GATA2 ChIP-Seq data presented above. Six statistically significant GATA2 binding peaks were identified in vehicle treated cells across the 70 kb region (Fig 9A); corresponding to four locus control region (LCR) hypersensitivity sites, a region in the HBB gene, and a region near the HBD gene promoter. […]

Details of data set [2]: method as in earlier work. To be noted: mouse; cited from earlier work.
On the set-up of data set [3]: method as in earlier work. To be noted: monkey; cited from earlier work.
For data set [4], the target named is T7, HDAC2 (Homo sapiens, UniProt Q92769). The data set can be described thus: In vitro biochemical HDAC enzyme assay. Also noted: purchased BPS Biosciences. To be noted: 24 hours pre-incubation; mean, n = 4. Here is the method:
as §1
ACY-957 was tested against each individual HDAC in an in vitro biochemical assay as previously described. […]

Data set [5] has as its target T7, HDAC2. Kind of data set: Cellular HDAC2 inhibition (HDAC-Glo 2 Kit) in BM cells. The data set is classed as cell-based. More on the design: endogenous in cells; host or cells: primary human bone marrow (BM) cells expanded in CS1 media. To be noted: CS1 expansion media 6 days, then 48 hours with compound, n = 6.
Experimental: The HDAC-Glo 2 Kit (Promega) was used for in vivo HDAC2 inhibition assays [27, 28]. First, BM cells were expanded in CS1 for 6 days. Next, 25000 cells in 25 μL of CS1 expansion media was placed in a 384-well plate in the presence of compound. Cells were cultured for an additional 48 hours, followed by luminescence detection in the lytic format as described by the manufacturer’s protocol.

Read-outs that look alike come from different tables or passages of the source.

One may read the IC50 as the midpoint of a concentration-inhibition curve.

T7 sequence (Q92769 whole entry): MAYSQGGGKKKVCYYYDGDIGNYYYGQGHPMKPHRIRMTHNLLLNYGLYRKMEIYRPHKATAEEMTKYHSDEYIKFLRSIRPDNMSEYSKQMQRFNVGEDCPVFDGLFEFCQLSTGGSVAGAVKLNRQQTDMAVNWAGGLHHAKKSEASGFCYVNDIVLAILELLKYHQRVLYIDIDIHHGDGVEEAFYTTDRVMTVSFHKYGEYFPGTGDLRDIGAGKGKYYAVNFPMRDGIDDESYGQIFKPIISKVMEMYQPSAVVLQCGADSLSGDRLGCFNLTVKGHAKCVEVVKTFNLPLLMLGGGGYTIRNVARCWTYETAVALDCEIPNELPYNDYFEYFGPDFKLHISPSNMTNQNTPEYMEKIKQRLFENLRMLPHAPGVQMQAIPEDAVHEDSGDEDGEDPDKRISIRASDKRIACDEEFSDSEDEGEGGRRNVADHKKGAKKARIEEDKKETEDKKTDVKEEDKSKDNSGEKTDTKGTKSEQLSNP
Chain of HDAC3 (O15379 whole entry): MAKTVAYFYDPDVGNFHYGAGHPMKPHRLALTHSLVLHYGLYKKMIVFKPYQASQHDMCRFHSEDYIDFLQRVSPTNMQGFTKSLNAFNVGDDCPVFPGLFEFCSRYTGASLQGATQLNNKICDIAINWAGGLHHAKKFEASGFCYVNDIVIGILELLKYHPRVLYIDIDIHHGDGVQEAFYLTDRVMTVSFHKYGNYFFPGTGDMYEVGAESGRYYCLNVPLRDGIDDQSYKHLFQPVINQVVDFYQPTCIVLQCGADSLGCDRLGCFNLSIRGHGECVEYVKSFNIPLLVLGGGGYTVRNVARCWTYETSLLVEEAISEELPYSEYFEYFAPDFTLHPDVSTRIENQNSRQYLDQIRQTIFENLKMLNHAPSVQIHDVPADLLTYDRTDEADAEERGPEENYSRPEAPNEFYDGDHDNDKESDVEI
Chain of HDAC3 (Q9Y618 395-489 partner limits assumed): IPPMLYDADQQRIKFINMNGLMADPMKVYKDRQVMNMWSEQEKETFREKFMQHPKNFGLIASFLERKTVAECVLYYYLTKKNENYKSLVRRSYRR

As to `Nc1ccc(-c2cccs2)cc1NC(=O)c1ccc2nc(N3CCNCC3)ccc2c1` [ACY-957], the IC50 at HDAC1 turned out to be 7 nM; against HDAC3 (24 hours pre-incubation, mean, n = 4), 1300 nM; against HDAC2 [4], 18 nM; at HDAC2 [5] it was 304 nM. The “selectivity for HDAC1/2 over HDAC3” value at HDAC3 (biochemical assay) was “approximately 100 fold”. In addition, the “inhibition of HDAC4” value in the data set on HDAC4 is on record as “no inhibition”. Moreover, the “inhibition of HDAC5” value with HDAC5 is recorded as “no inhibition”. Also, in the data set with HDAC6, the “inhibition of HDAC6” value is “no inhibition”. Also, the “inhibition of HDAC7” value in the data set with HDAC7 is on record as “no inhibition”. Further, in the data set with HDAC8, the “inhibition of HDAC8” value is “no inhibition”. In the data set on HDAC9, the “inhibition of HDAC9” value is given as “no inhibition”. In addition, the “GATA2 expression in primary cells derived from SCD patients” value in the data set with GATA2 mRNA was “elevated GATA2 expression”. Moreover, the “GATA2 binding at control region within the HBB gene” value in data set [1] is on record as “unaffected”. Moreover, the “increase in GATA2 binding at the HBD promoter” value in data set [1] came out at 2 fold. In addition, the pharmacokinetic properties entry in [2] and in data set [3] was “favorable” each time.

Values taken from article PMC4830539, “Chemical Inhibition of Histone Deacetylases 1 and 2 Induces Fetal Hemoglobin through Activation of GATA2” (PLoS ONE, 2016).
